Measurements as given in article PMC10854695, “Using Flavonoid Substitution Status to Predict Anticancer Effects in Human Melanoma Cancers: An In Vitro Study” (Cancers, 2024).
Where two headings read alike, the source gives them in different places. One block for each compound: values may come before it.

Columns and labels:
[1] = test system: A375 melanoma cells
[2] = test system: C32 melanoma cells
[3] = test system: human skin fibroblasts (CCD25Sk)
[4] = test system: C32 melanoma cells; remark: listed apart in the source
[5] = test system: human skin fibroblasts (CCD25Sk); remark: listed apart in the source
[6] = test system: A375 melanoma cells; remark: listed apart in the source
[7] = MTT cell viability assay, normal cells; details: human;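 note: fibroblasts served as non-cancer comparison line for selectivity versus melanoma cells, MTT reduction read as absorbance at 570 nm after 2 h dye exposure, compounds in ≤0.1% DMSO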
[8] = test system: A375 melanoma cells; experiment: Neutral red uptake (NRU) assay, A375; details: read-out: IC50, cytotoxic activity, NRU assay
[9] = Neutral red uptake (NRU) assay, normal cells; details: human
[10] = test system: caspases, PARP, phospho-RSK in C32 cells; experiment: Western immunoblot of apoptosis mediators and RSK, C32; type: cell-based, human; details: C32, 48 h, Western blot
Protocol: (§1) Floating cells were harvested by centrifugation of the conditioned media (300× g, 5 min). Cell pellet and adherent cells were lysed in a cell lysis buffer supplemented with inhibitors of proteases and phosphatases. The cell lysate was sonicated (2 × 10 s) on ice with an ultrasonic homogenizer (UP200S, Hielscher Ultrasonics GmbH, Teltow, Germany) and centrifuged for 10 min at 10,000× g. The supernatant was collected and stored in a freezer at −70 °C. Protein concentrations in the cell supernatants were determined using a Lowry assay. Obtained proteins were dissolved on SDS-PAGE gels (7.5%, 10%, or 12%) using the Mini-Protean Tetra system. The proteins were transferred to nitrocellulose membranes using the Mini Trans-Blot Cell wet blotting system. The 5% skim milk was used to block membranes. Then, membranes were probed for 24 h at 4 °C with the following antibodies: anti-phospho-RSK, anti-RSK, anti-PARP, anti-cleaved PARP, anti-caspase-8, anti-caspase-9, anti-caspase-7, anti-caspase-3, and anti-actin. Membranes were incubated with an ECL-HRP (enhanced chemiluminescence-horseradish peroxidase) substrate, and the signal was spotted using the BioSpectrum Imaging System and VisionWorks LS software 7.0 (Ultra-Violet Products, Ltd., San Gabriel, CA, USA). The intensity of the bands was quantified by densitometric analysis using UVIBand software, version 15.08d (Uvitec Ltd., Cambridge, UK).

[11] = test system: C32 melanoma cells; experiment: MTT cell viability assay, C32; details: read-out: IC50, cytotoxic activity, MTT test;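 note: MTT added for 2 h, cells lysed in DMSO, absorbance read at 570 nm, compound vehicle kept at or below 0.1% DMSO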
[12] = test system: C32 melanoma cells; experiment: Neutral red uptake (NRU) assay, C32
[13] = test system: A375 melanoma cells; experiment: [3H]-thymidine incorporation (DNA biosynthesis), A375; type: cell-based, human; details: read-out: IC50, effect on DNA biosynthesis ([3H]-thymidine incorporation)
Protocol: (§2) The inhibition of DNA biosynthesis was evaluated using [^3H]-thymidine incorporation into the DNA of melanoma cells (C32, A375) and fibroblasts treated with the studied compounds [21]. The cells were briefly seeded in 24-well plates (1 × 10^5 cells per well) and allowed to adhere for 24 h. […] After incubation for 24, 48, and 72 h, the cells were rinsed three times with PBS. Then, cells were lysed in 1 mL of 0.1 M NaOH containing 1% SDS. The cell lysate was moved into scintillation vials containing scintillation liquid, and the radioactivity of the samples was measured using a liquid scintillation analyzer (Perkin-Elmer, Waltham, MA, USA).

[14] = test system: caspases, PARP, phospho-RSK in A375 cells; experiment: Western immunoblot of apoptosis mediators and RSK, A375; type: cell-based, human; details: A375, 48 h, Western blot
Protocol: as §1

[15] = test system: cleaved caspase-3 and cleaved caspase-7 in C32 cells; experiment: Immunofluorescence of cleaved caspase-3/-7, C32; type: cell-based, human; details: C32, 48 h, immunofluorescent staining
Protocol: Firstly, to examine fluorescent signals, cells were placed in the bottom of 96-well black plates at 1 × 10^4 cells per well and permitted to adhere for 24 h. […] After incubating and removing the medium, cells were fixed in 4% paraformaldehyde for 15 min. Later, cells were rinsed three times with PBS and permeabilized with 0.1% Triton X-100 for 5 min at room temperature. The 10% heat-inactivated goat serum in the PBS was used to block non-specific binding. Subsequently, cells were treated with the following antibodies overnight: anti-cleaved caspase 3 and anti-cleaved caspase-7. […] Cell nuclei were stained with Hoechst 33342 and F-actin was stained with Phalloidin-Atto 488. Fluorescent signals were captured using a BD Pathway 855 confocal microscope (Becton Dickinson, Franklin Lakes, NJ, USA). The mean fluorescence intensity was calculated using ImageJ software (National Institutes of Health, Bethesda, Rockville, MD, USA).

[16] = test system: A375 melanoma cells; experiment: MTT cell viability assay, A375;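 note: Read-out is formazan absorbance at 570 nm after 2 h with MTT, with compounds in at most 0.1% v/v DMSO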
[17] = test system: C32 melanoma cells; experiment: [3H]-thymidine incorporation (DNA biosynthesis), C32; type: cell-based, human; details: read-out: IC50, effect on DNA biosynthesis ([3H]-thymidine incorporation)
Protocol: as §2

[18] = test system: A375 melanoma cells; experiment: Apoptosis assay, annexin V/PI flow cytometry, A375; type: cell-based, human; details: 48 h
Protocol: Firstly, cells were placed in 6-well plates at a density of 1 × 10^5 cells per well and allowed to adhere for 24 h. Then, cells were treated with 25 µM, 50 µM, and 100 μM of the selected flavonoids (1, 6, 15, 16, 17, 37) and incubated for 48 h. Floating and adherent cells were collected and assayed using the manufacturer’s protocol supported by the Dead Cell Apoptosis Kit for flow cytometry. Concisely, 100 μL of an annexin-binding buffer containing a 5 μL annexin V-FITC conjugate solution and 1 μg/mL PI (propidium iodide) was used to disperse the cells. After 15 min of incubation, an additional 400 μL of the mentioned buffer was added. The cells were analyzed with a DxFLEX flow cytometer (Beckman Coulter, Brea, CA, USA).

[19] = test system: human skin fibroblasts (CCD25Sk); experiment: [3H]-thymidine incorporation (DNA biosynthesis), normal cells; type: cell-based; details: Homo sapiens, Skin fibroblast, read-out: IC50, effect on DNA biosynthesis ([3H]-thymidine incorporation)
Protocol: as §2

[20] = test system: human skin fibroblasts (CCD25Sk); experiment: MTT cell viability assay, normal cells; details: read-out: IC50, cytotoxic activity, MTT test, Normal cells (fibroblasts);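 note: fibroblasts served as non-cancer comparison line for selectivity versus melanoma cells, MTT reduction read as absorbance at 570 nm after 2 h dye exposure, compounds in ≤0.1% DMSO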
[21] = test system: human skin fibroblasts (CCD25Sk); experiment: Neutral red uptake (NRU) assay, normal cells; details: read-out: IC50, cytotoxic activity, NRU assay, Normal cells (fibroblasts)
[22] = human skin fibroblasts (CCD25Sk)
[23] = Homo sapiens, A-375, A375, 24 h
[24] = Homo sapiens, A-375, A375, 48 h
[25] = Homo sapiens, A-375, A375, 72 h

Compound: COc1cc(-c2cc(=O)c3c(O)cc(O)c(C4OCC(O)C(O)C4OC4OC(CO)C(OC(C)=O)C(O)C4O)c3o2)ccc1OC(C)=O (stereo not shown) [Compound 13, 5,7-dihydroxy-3′-methoxy-4′-acetoxyflavone-8-C-arabinoside-2″-O-(4‴-acetoxy)-glucoside]
- IC50 [1]: > 200 µM
- IC50 [2]: > 200 µM
- IC50 [3]: > 200 µM
- IC50 [4]: > 200 µM
- IC50 [5]: > 200 µM
- IC50 [6]: > 200 µM

- IC50 at 24 h [9, 22]: > 200 µM
- IC50 at 48 h [9, 22]: 100 to 200 µM
- IC50 at 72 h [9, 22]: 100 to 200 µM
- IC50 ([13]; A375, 48 h): 32.4 ± 2.4 µM
- IC50 [13, 23]: > 200 µM
- IC50 [13, 24]: 32.4 ± 0.49 µM
- IC50 [13, 25]: 31.4 ± 1.7 µM
- IC50 ([17]; C32, 48 h): 20 ± 1.9 µM
- IC50 ([17]; Homo sapiens, C32, C32, 24 h): > 200 µM
- IC50 ([17]; Homo sapiens, C32, C32, 48 h): 20.1 ± 0.98 µM
- IC50 ([17]; Homo sapiens, C32, C32, 72 h): 20.3 ± 1.2 µM
Compound: O=c1cc(-c2ccccc2)oc2ccc(O)c(O)c12 [Compound 15, 5,6-dihydroxyflavone]
- IC50 at 24 h [7, 22]: > 200 µM
- IC50 at 48 h [7, 22]: > 200 µM
- IC50 at 72 h [7, 22]: > 200 µM
- IC50 ([8]; Homo sapiens, A-375, 24 h): 53.3 ± 4.6 µM
- IC50 ([8]; Homo sapiens, A-375, 48 h): 16 ± 1.1 µM
- IC50 ([8]; Homo sapiens, A-375, 72 h): 13.6 ± 1.1 µM
- cleaved PARP and caspase-9 [10]: generated cleaved PARP and caspase-9
- IC50 ([11]; Homo sapiens, C32, 24 h): 100 to 200 µM
- IC50 ([11]; Homo sapiens, C32, 48 h): 47.5 ± 3.5 µM
- IC50 ([11]; Homo sapiens, C32, 72 h): 23.5 ± 1.9 µM
- IC50 ([12]; Homo sapiens, C32, 24 h, read-out: IC50, cytotoxic activity, NRU assay, C32, 24 h): 72.6 ± 5.5 µM
- IC50 ([12]; Homo sapiens, C32, 48 h, read-out: IC50, cytotoxic activity, NRU assay, C32, 48 h): 18.2 ± 2.1 µM
- IC50 ([12]; Homo sapiens, C32, 72 h, read-out: IC50, cytotoxic activity, NRU assay, C32, 72 h): 15.4 ± 1.1 µM
- expression of cleaved caspase-8 [14]: increased
- caspase-3 expression [15]: notably extended
- IC50 ([16]; Homo sapiens, A-375, 24 h, read-out: IC50, cytotoxic activity, MTT test, A375, 24 h): 86 ± 6.3 µM
- IC50 ([16]; Homo sapiens, A-375, 48 h, read-out: IC50, cytotoxic activity, MTT test, A375, 48 h): 36.4 ± 2 µM
- IC50 ([16]; Homo sapiens, A-375, 72 h, read-out: IC50, cytotoxic activity, MTT test, A375, 72 h): 26.4 ± 1.2 µM
- level of early apoptotic cells ([18]; A375, 25 µM): 42.0 ± 4.5%
- level of late apoptotic cells ([18]; A375, 25 µM): 8.9 ± 2.2%
- IC50 ([19]; 24 h): 175 ± 7.6 µM
- IC50 ([19]; 48 h): > 200 µM
- IC50 ([19]; 72 h): > 200 µM

- IC50 at 24 h [9]: > 200 µM
- IC50 at 48 h [9]: 57.8 ± 4 µM
- IC50 at 72 h [9]: 38.6 ± 3.7 µM
- IC50 ([13]; A375, 48 h): 28 ± 0.8 µM
- IC50 [13, 23]: 154 ± 10.8 µM
- IC50 [13, 24]: 28.1 ± 0.87 µM
- IC50 [13, 25]: 24.2 ± 1.5 µM
- IC50 ([17]; C32, 48 h): 18.5 ± 0.7 µM
- IC50 ([17]; Homo sapiens, C32, C32, 24 h): 25.4 ± 1.3 µM
- IC50 ([17]; Homo sapiens, C32, C32, 48 h): 18.5 ± 0.21 µM
- IC50 ([17]; Homo sapiens, C32, C32, 72 h): 19.1 ± 0.3 µM
Compound: O=c1c(-c2ccc(O)cc2)coc2cc(O)cc(O)c12 [Compound 37, genistein]
- IC50 at 24 h [7]: > 200 µM
- IC50 at 48 h [7]: 100 to 200 µM
- IC50 at 72 h [7]: 56.8 ± 4.1 µM
- IC50 ([8]; Homo sapiens, A-375, 24 h): 49.2 ± 3.2 µM
- IC50 ([8]; Homo sapiens, A-375, 48 h): 32.3 ± 3.5 µM
- IC50 ([8]; Homo sapiens, A-375, 72 h): 19.3 ± 2.2 µM
- cleaved PARP and caspase-9 [10]: generated cleaved PARP and caspase-9
- phosphorylation of RSK [10]: inhibited
- IC50 ([11]; Homo sapiens, C32, 24 h): > 200 µM
- IC50 ([11]; Homo sapiens, C32, 48 h): > 200 µM
- IC50 ([11]; Homo sapiens, C32, 72 h): 51.1 ± 3.5 µM
- IC50 ([12]; Homo sapiens, C32, 24 h, read-out: IC50, cytotoxic activity, NRU assay): 100 to 200 µM
- IC50 ([12]; Homo sapiens, C32, 48 h, read-out: IC50, cytotoxic activity, NRU assay): 31.5 ± 2.8 µM
- IC50 ([12]; Homo sapiens, C32, 72 h, read-out: IC50, cytotoxic activity, NRU assay): 14.4 ± 2.1 µM
- cleavage of initiator caspases, caspase-9 and caspase-8 [14]: cleavage of both initiator caspases
- levels of the caspases-3 and -7 zymogens [14]: decreased levels
- phosphorylation of the RSK protein [14]: impaired
- caspase-3 expression [15]: notably extended
- IC50 ([16]; Homo sapiens, A-375, 24 h, read-out: IC50, cytotoxic activity, MTT test): 93.1 ± 5.8 µM
- IC50 ([16]; Homo sapiens, A-375, 48 h, read-out: IC50, cytotoxic activity, MTT test): 60.9 ± 4.2 µM
- level of early apoptotic cells ([18]; A375, 50 µM): 38.1 ± 4.2%
- level of late apoptotic cells ([18]; A375, 50 µM): 8.9 ± 1.9%
- IC50 ([19]; 24 h): > 200 µM
- IC50 ([19]; 48 h): > 200 µM
- IC50 ([19]; 72 h): > 200 µM

Compound: kaempferol 3-O-galactoside [Compound 22]
- IC50 ([20]; 24 h): > 200 µM
- IC50 ([20]; 48 h): > 200 µM
- IC50 ([20]; 72 h): > 200 µM
- IC50 ([8]; A375, 24 h): > 200 µM
- IC50 ([8]; A375, 48 h): > 200 µM
- IC50 ([8]; A375, 72 h): > 200 µM
- IC50 ([21]; 24 h): > 200 µM
- IC50 ([21]; 48 h): > 200 µM
- IC50 ([21]; 72 h): > 200 µM
- IC50 ([11]; C32, 24 h): > 200 µM
- IC50 ([11]; C32, 48 h): > 200 µM
- IC50 ([11]; C32, 72 h): > 200 µM
- IC50 ([12]; read-out: IC50, cytotoxic activity, NRU assay, C32, 24 h): > 200 µM
- IC50 ([12]; read-out: IC50, cytotoxic activity, NRU assay, C32, 48 h): > 200 µM
- IC50 ([12]; read-out: IC50, cytotoxic activity, NRU assay, C32, 72 h): > 200 µM
- IC50 ([16]; read-out: IC50, cytotoxic activity, MTT test, A375, 24 h): > 200 µM
- IC50 ([16]; read-out: IC50, cytotoxic activity, MTT test, A375, 48 h): > 200 µM
- IC50 ([16]; read-out: IC50, cytotoxic activity, MTT test, A375, 72 h): > 200 µM
